Experimental data: patent publication US9445993B2, “Nanotechnology approach for inhalation therapies” (Rutgers, The State University of New Jersey, priority 2012, dated 2016)

Tests used:
[1] = test system: IPF initiated by the intratracheal instillation of bleomycin; test: Animal model of IPF and inhalation treatment starting day 15 (Example 2): body and lung weight, hydroxyproline, MRI, histology
Method: Healthy 6-8 weeks old SKH1-hr hairless mice of both genders (20-25 g) were obtained from Charles River Laboratories (Wilmington, Mass.). IPF was initiated by the intratracheal instillation of bleomycin at the dose of 1.5 U/kg. Changes in animal body and lung weight, hydroxyproline content in the lung tissue, and lung histology were used as hallmarks of the development of IPF in experimental animals.
Mice were treated separately with three different NLC-based DDS containing PGE2 and siRNA targeted to MMP3, CCL12 and HIF1A mRNA with appropriate controls by inhalation twice a week for three weeks starting 15 days after the bleomycin administration. […] A previously developed instillation unit consisting of a collision nebulizer connected to four-port, nose-only exposure chambers was used for inhalation delivery of NLC-PEG2-siRNA. NLC-based DDS was aerosolized at the flow rate of 2 L/min for ten min. Animal weight was measured daily throughout the study. In vivo imaging was performed twice per week in anesthetized mice during the whole course of the treatment. Optical Imaging (In-Vivo MS FX PRO, IVIS 100) and ultrasound (Vevo 2100 imaging system) was performed to monitor the body distribution of nanoparticles and disease progression, respectively. Animals were treated 6 times (2 times per week) starting from the day 15 after bleomycin instillation.
Expression of genes and proteins involved in the development and compensation of IPF was studied by quantitative RT-PCR (genes), Western blotting and Immunohistochemistry (proteins). In addition, body and organ weights as well as hydroxyproline content in the lungs was monitored. The distribution of osmium-, fluorescent- or tritium-labeled DDS was examined in mouse lungs, heart, liver, spleen, kidneys, and brain using transmission electron and confocal microscopes, optical imaging systems, and a radioactive counter, respectively. Adverse side effects of the treatment were determined by histopathological analysis, apoptosis and necrosis measurement in the healthy organs (heart, liver, spleen, kidneys, and brain).
Changes in animal body and lung weight, hydroxyproline content in the lung tissue and lung histology were used as hallmarks of the development of IPF in experimental animals after the instillation of 1.5 U/kg of bleomycin.

[2] = test system: 84 key genes involved in tissue remodeling; MMP3, CCL12, HIF1A; test: Gene and protein expression in lung tissues (Example 2); format: in vivo, mice; conditions: treatment with PGE2
Method: The profiles of the expression of 84 key genes involved in tissue remodeling during wound repair and development of fibrosis were studied in the lung tissues. […] Overexpression of some proteins was confirmed using immunostaining of lung tissue sections (FIG. 13A). In addition to genes included in the mouse fibrosis array, the expression of VEGF and hypoxia inducible factor 1 alpha (HIF1A) proteins was analyzed by immunohistochemistry (FIG. 13A) and Western blotting (FIG. 13B). Instillation of bleomycin led to the overexpression of HIF1A protein (FIGS. 13A and B).

[3] = test system: lung fibrosis induced by intratracheal instillation of bleomycin; test: Animal model of IPF and inhalation treatment: body mass and mortality (Example 1); format: in vivo, mice; conditions: three weeks after instillation of 1.5 U/kg bleomycin
Method: (§1) Experiments were performed on healthy 6-8 weeks old SKH1-hr hairless mice (20-25 g) obtained from Charles River Laboratories (Wilmington, Mass.). Veterinary care followed the guidelines described in the guide for the care and use of laboratory animals (AAALAC) as well as the requirements established by the animal protocol approved by the Rutgers Institutional Animal Care and Use Committee (IACUC).
All mice were contained in micro-isolated cages under pathogen-free conditions at room temperature with humidity of 40±15% and light/dark cycle on 12 h per day in the animal maintenance facility. Mice were anesthetized via intraperitoneal instillation with 80 mg/kg ketamine and 10-12 mg/kg xylazine (Butler-Schine Animal Health Inc, Dublin, Ohio). Once anesthetized, the mouse was placed on the tilting rodent work stand (Hallowell EMC, Pittsfield, Mass.) in supine position and restrained in position by an incisor loop. The tongue was then extruded via rotation with a cotton tip applicator. The larynx was visualized using a modified 4 mm ear speculum attached to an operating head of an ophthalmoscope (Wellch Allyn, Skaneateles Falls, N.Y.). […]
Bleomycin was administered intratracheally in doses of 0.5, 1.0, 1.5, and 2.0 U/kg. […] Animal weight was measured daily throughout the study. […]

mice = test: Selection of bleomycin dose (animal death after intratracheal instillation); format: in vivo; conditions: observed 21 days
Method: as §1
All mice were contained in micro-isolated cages under pathogen-free conditions at room temperature with humidity of 40±15% and light/dark cycle on 12 h per day in the animal maintenance facility. Mice were anesthetized via intraperitoneal instillation with 80 mg/kg ketamine and 10-12 mg/kg xylazine (Butler-Schine Animal Health Inc, Dublin, Ohio). Once anesthetized, the mouse was placed on the tilting rodent work stand (Hallowell EMC, Pittsfield, Mass.) in supine position and restrained in position by an incisor loop. The tongue was then extruded via rotation with a cotton tip applicator. The larynx was visualized using a modified 4 mm ear speculum attached to an operating head of an ophthalmoscope (Wellch Allyn, Skaneateles Falls, N.Y.). The modified speculum, acting in an inverted fashion as a laryngoscope blade, provided dorsal displacement of the tongue and magnification of the laryngeal opening as described.
Bleomycin was administered intratracheally in doses of 0.5, 1.0, 1.5, and 2.0 U/kg. Mice were treated with liposomal PGE2 by inhalation twice a week for three weeks starting with the second day after the bleomycin administration. […] Animal weight was measured daily throughout the study. After the three weeks treatment period, all mice were anesthetized with isoflurane and euthanized. The organs (lungs, heart, liver, kidney, spleen, and brain) were excised and used for further analysis.
In order to select an appropriate dose of bleomycin, four doses (0.5; 1.0; 1.5; 2.0 U/kg) were tested. […] The dose of 2.0 U/kg led to the death of 100% of animals within 21 days (FIG. 1A). The doses of 1.5 and 1.0 U/kg induced death of 50 and 25% of animals, respectively.

[4] = test system: hydroxyproline content in the lungs; test: Hydroxyproline assay in lungs (Example 1); format: in vivo, mice; conditions: three weeks after instillation of 1.5 U/kg bleomycin
Method: […] Homogenized lung tissues were hydrolyzed in 12 N HCl at 120° C. for 3 h in pressure-tight vials. After this, 10 μl of samples were allocated to a 96 well plate and dried under vacuum. Oxidation buffer with chloramine T was added to each sample at room temperature for 5 min, and the samples were incubated in dimethylaminobenzaldehyde (DMAB) reagent for 90 min at 60° C. Samples were cooled and the absorbance at 560 nm was measured using an automated microplate plate reader. Six concentrations of hydroxyproline standard dilutions (from 0 to 1 μg/well) were used to plot a hydroxyproline standard curve.

lung tissue = test: Histopathologic analysis of lungs (Example 1); format: in vivo, mice; conditions: 1.5 U/kg bleomycin instilled
Description: At the end of the experiments, the animals were euthanized, the lungs were extracted and immediately fixed in 10% phosphate-buffered formalin. Samples were subsequently dehydrated and embedded in Paraplast®. Five-micrometer sections were cut and stained with hematoxylin-eosin as previously described and analyzed.

[5] = PGE2 delivered by liposomes or NLC by inhalation, from day 15
[6] = 15 days after instillation of 1.5 U/kg bleomycin

Compound	signs of IPF and lung tissue injury detected by MRI and histopathology ([1]; PGE2 alone delivered locally into the lungs)	hydroxyproline content in the lungs of treated animals versus healthy control ([1]; PGE2 by inhalation, from day 15)	body weight of experimental animals [1, 5]	lung weight [1, 5]	therapeutic effects of PGE2 delivered by liposomes versus NLC ([1]; inhalation)	expression of MMP3, CCL12 and HIF1A versus control after treatment [2]	body mass of animals, % of its initial value [3] [%]	animal death (mice; bleomycin 0.5 U/kg intratracheally)	death of animals (mice; bleomycin 1.0 U/kg intratracheally) [%]	death of animals (mice; bleomycin 1.5 U/kg intratracheally) [%]	death of animals within 21 days (mice; bleomycin 2.0 U/kg intratracheally) [%]	body weight of animals, % of its initial value [1, 6] [%]	increase of hydroxyproline concentration in the lungs [1, 6] [fold]	lung weight [1, 6]	lung histology ([1]; bleomycin 1.5 U/kg)	increase of hydroxyproline concentration in the lungs [4] [times]	lung histology (lung tissue)
CCCCC[C@H](O)/C=C/[C@H]1[C@H](O)CC(=O)[C@@H]1C/C=C\CCCC(=O)O [PGE2, Prostaglandin E2]	substantially less pronounced	still significantly higher	decreased the body weight of experimental animals induced by bleomycin	had a little effect on the lung weight	comparable	still substantially higher when compared with control	–	–	–	–	–	–	–	–	–	–	–
bleomycin	–	–	–	–	–	–	75	did not induce animal death	25	50	100	75	2.6	significantly increased	consolidation of the pulmonary architecture, with early fibrotic thickening of the alveolar walls, ablation of the alveolar space, and edema	2.6	consolidation of the pulmonary architecture, with early fibrotic thickening of the alveolar walls, ablation of the alveolar space, and edema
